Source: PMC9653995, “New Positive TRPC6 Modulator Penetrates Blood–Brain Barrier, Eliminates Synaptic Deficiency and Restores Memory Deficit in 5xFAD Mice” (International Journal of Molecular Sciences, 2022)

Columns and labels:
5xFAD mice = assay: Contextual and cued fear conditioning test; format: in vivo, mouse; details: 10 mg/kg i.p. daily for 14 days
Experimental: To analyze the effect of C20 on the cognitive status of diseased mice, a contextual and cued fear conditioning test was performed in the 5xFAD mice. Two WT cohorts and two 5xFAD cohorts of eight mice each were intraperitoneally injected (every day for 14 days) with either C20 (10 mg/kg) or an equal amount of vehicle.
Six-month-old 5xFAD and WT mice were intraperitoneally injected with C20 (10 mg/kg b.w. dissolved in ethanol (13.5%) and diluted in 0.9% saline (86.5%)) or an equal volume of ethanol diluted in 0.9% saline (vehicle) once daily for 14 days. To analyze the effect of C20 on cognitive behavior, mice were subjected to hippocampus-dependent contextual fear conditioning and hippocampus independent tone fear conditioning (n = 8 mice in each group).
According to a 3-day delay fear conditioning protocol, the conditioned stimulus is presented and overlapped by the presentation of the unconditioned stimulus. The experiments were performed using a standard conditioning chamber (25 cm × 20 cm × 30 cm) with a stainless steel floor connected to an electric shock generator. The chamber was housed in a soundproof isolation cubicle. Measurements were accomplished through two cameras (Web camera FI#2.0 8mm и Webcam Logitech C200, Apples, Switzerland), connected to a computer with video freeze software (AUTO_URAI_4 developer Dr. V.V. Sizov, Institute of Experimental Medicine, Saint Petersburg, Russia, I.P. Pavlov Department of Physiology, sizoff@list.ru).
To exclude possible freezing due to the novel environment, we allowed the mice to habituate to the chamber. On day 1 (habituation), we brought mice into the habituation room and placed them into a training chamber individually for 5 min without any cue.
On day 2 (training), we placed each mouse in the conditioning chamber for 2 min without any shock or tone. Then, mice received two repetitions of a tone (500 Hz, 55 dB) that simultaneously ended with a 2 s foot shock (0.3 mA, US) with 60 s inter-trial intervals. Mice were allowed to recover after the foot-shock for an additional 60 s before being removed to their home cage.
On day 3 (testing), mice were placed back in the familiar fear conditioning chamber, but in the absence of tones and foot shocks. The freezing behavior was measured for 180 s to test contextual memory retrieval. For the tone fear retrieval trial one hour after the contextual test, mice were placed in an altered conditioning chamber with black and white striped walls, a covered floor, and a vanilla extract scent. After 180 s of baseline in an altered conditioning recording, a tone similar to the one used during the fear conditioning training was presented for 180 s. The freezing behavior before and during the tone was measured.

[1] = tested on: hippocampal slices from 8-month-old 5xFAD mice; assay: LTP induction (HFS) in hippocampal Schaffer collateral-CA1 synapses of brain slices, fEPSP recording; format: cell-based, mouse; details: 100 nM, normalized to baseline, mean ± SEM
Experimental: Long-term potentiation (LTP) is considered a cellular mechanism for long-term memory. LTP deficits have been reported in AD mouse models including 5xFAD mice. We examined whether C20 could improve synaptic plasticity in hippocampal slices of 5xFAD mice. LTP was induced in hippocampal Schaffer collateral-CA1 synapses by high-frequency stimulation (HFS).
Mouse transcardial perfusion was performed with 0–2 °C of holding buffer containing (in mM): 124 NaCl, 2.5 KCl, 24 NaHCO3, 1.2 NaH2PO4, 5 HEPES, 0.5 CaCl2*2H2O, 10 MgCl2*7H2O, 3 Na-pyruvate, and 12.5 D-glucose. […]
After incubation, the slices were placed in a recording chamber and perfused with a constant flow of recording buffer saturated with carbogen. […] Field excitatory postsynaptic potentials (fEPSPs) were recorded from CA1 stratum radiatum in recording buffer (124 mM NaCl, 2.5 mM KCl, 24 mM NaHCO3, 1.2 mM NaH2PO4, 5 mM HEPES, 2 mM CaCl2*2H2O, 0.8 mM MgCl2*7H2O, and 12.5 mM D-glucose) using borosilicate glass microelectrodes (300–400 kΩ) filled with recording buffer. […] Electrophysiological field responses were amplified and controlled using a Multiclamp 700B (Molecular Devices, Sunnyvale, CA, USA), digitized by Digidata 1440A (Molecular Devices, USA) and analyzed by pClamp 10.6 (Axon Instruments, Union City, California, USA). […] The amplitude and slope of the rising phase of EPSP at a level of 20–80% of the peak amplitude were measured. […]

## COc1cc2c(cc1OC)C(c1cc3ccccc3oc1=O)=NC(C)(C)C2 [C20, 3-(3-,4-Dihydro-6,7-dimethoxy-3,3-dimethyl-1-isoquinolinyl)-2H-1-benzopyran-2-one]
5xFAD mice; 6-month-old 5xFAD mice, 5xFAD + vehicle 33.88 ± 15.09%
  freezing time to context: 67.00 ± 17.78%
5xFAD mice; 6-month-old 5xFAD mice, 5xFAD + vehicle 37.75 ± 8.25%
  freezing time to tone: 63.50 ± 13.38%
5xFAD mice; WT mice, WT + vehicle 58.25 ± 19.06%
  freezing time to context: 59.63 ± 17.53%
5xFAD mice; WT mice, WT + vehicle 69.25 ± 18.19%
  freezing time to tone: 67.75 ± 7.56%
[1]; 8-month-old 5xFAD slices, 5xFAD alone 115.5 ± 3.0%
  average fEPSP slope 30–40 min after HFS: 149.4 ± 9.7%
[1]; WT slices, WT alone 168.7 ± 4.8%
  average fEPSP slope 30–40 min after HFS: 161.4 ± 9.6%
